The text below walks through data of patent US20250304551A1 (SHANGHAI APEIRON THERAPEUTICS COMPANY LIMITED, priority 2022, published 2025).

The structures appear in SMILES notation.

Assay [1] has as its target T1, Human KIF18A (amino acid sequence 1-417) (Homo sapiens, UniProt Q8NI77).
T1 construct: purchased Viva Biotech (Shanghai) Ltd
In words: Enzyme activity detection experiment (ADP-Glo, KIF18A with tubulin and ATP). Particulars: tubulin 60 μg/mL, ATP 25 μM, KIF18A protein 2.5 nM, 120 minutes at ambient temperature, ADP-Glo chemiluminescence. It counts as biochemical. Here is the method: Materials: Human KIF18A (amino acid sequence 1-417) was obtained from Viva Biotech (Shanghai) Ltd., and the ADP-Glo™ protein kinase kit was acquired from Promega, USA. Tubulin was sourced from Cytoskeleton, USA, while a 384-well assay plate and the Envision multifunctional microplate reader were obtained from PerkinElmer, USA.
Enzyme activity detection: The compound powder in DMSO was firstly dissolved to prepare a 10 mM stock solution. Next, gradient dilutions were prepared in the microplate to achieve final concentrations of […]. Sequentially, 2.5 μL of tubulin (60 μg/mL), the compound, ATP (25 μM), and KIF18A protein (2.5 nM) were added to each well, and the reaction was incubated at ambient temperature for 120 minutes. After the reaction, 10 μL of ADP-Glo™ reagent was added to each well and incubated at ambient temperature for 30 minutes. Subsequently, 20 μL of detection reagent was added to each well and incubated for an additional 30 minutes in the dark. Finally, chemiluminescence detection was performed using the PerkinElmer Envision multifunctional microplate reader.

The subject of a further assay is OVCAR3 cells. In words: Cell proliferation activity test, OVCAR3 (CyQUANT Direct). It counts as cell-based. To be noted: Homo sapiens, OVCAR-3, 72 h, 3 days incubation, CyQUANT fluorescence detection, read-out: OVCAR-3 Cell Viability_IC50_nM. Here is the method:
Materials and Cells: OVCAR3 cells were purchased from Nanjing Cobioer Biosciences Co., Ltd. RPMI-1640 medium, fetal bovine serum, and the CyQUANT Direct Cell Proliferation Assay kit were purchased from Thermo Fisher Scientific, USA; 96-well cell culture plates were sourced from Corning, USA.
Cell Culture: Culture OVCAR3 cells with RPMI-1640 medium containing […] and incubate them in a […] incubator at 37° C. Only cells in the logarithmic growth phase can be used for the test.
Inoculate OVCAR3 cells into a 96-well cell culture plate at 90 μL per well and incubate overnight in a […] incubator at 37° C. Dissolve the compound powder in DMSO to prepare a stock solution of 10 mM. Then perform gradient dilution for the compounds in the microplate to achieve a final concentration of 0-10 μM. Add 10 μL of cell culture medium containing compounds to each well to make the final DMSO content 0.20%. Incubate the cell plates in a […] incubator at 37° C. for 3 days. Add 100 μL of CyQUANT detection reagent to each well, react at 37° C. for 60 min, and perform fluorescence detection using the PerkinElmer Envision.

Another assay concerns HT29 cells. In words: CyQuant cell proliferation activity test, HT29. It counts as cell-based. To be noted: Homo sapiens, HT-29, 72 h, HT29 2000 cells per well, 3 days incubation, initial concentration 3000 nM, IC50 by XLFIT, read-out: HT-29 Cell Viability_IC50_nM. Here is the method:
Materials and Cells: HT29 cells were purchased from Nanjing Cobioer Biosciences Co., Ltd.; RPM-1640 medium, fetal bovine serum, Trypsin-EDTA (0.25%), DMSO, 96-well plates, and CyQuant reagents were purchased from ThermoFisher (USA).
Cell Culture: Culture HT29 cells with RPMI-1640 containing 10% fetal bovine serum under the condition of 37° C. and 5% CO2. Only cells in the logarithmic growth phase can be used for the test.
Cell Proliferation Activity Test: Use the CyQuant reagent to detect the proliferation inhibitory activity of compounds on HT29 cells. Adjust the cell density and inoculate 100 μL per well into the 96-well plate (HT29 at 2000 cells per well), then incubate overnight under the condition of 37° C. and […]. Add compounds of various target concentrations (initial concentration of 3000 nM, 3-fold dilution, 9 concentration gradients), and make the DMSO content 0.20%. Incubate the cell plates at 37° C. and 5% CO2 for 3 days. Incubate with CyQuant reagent for 1 h, read the plate by Envision, and calculate IC50 using XLFIT.

T1 sequence (Q8NI77 1-417): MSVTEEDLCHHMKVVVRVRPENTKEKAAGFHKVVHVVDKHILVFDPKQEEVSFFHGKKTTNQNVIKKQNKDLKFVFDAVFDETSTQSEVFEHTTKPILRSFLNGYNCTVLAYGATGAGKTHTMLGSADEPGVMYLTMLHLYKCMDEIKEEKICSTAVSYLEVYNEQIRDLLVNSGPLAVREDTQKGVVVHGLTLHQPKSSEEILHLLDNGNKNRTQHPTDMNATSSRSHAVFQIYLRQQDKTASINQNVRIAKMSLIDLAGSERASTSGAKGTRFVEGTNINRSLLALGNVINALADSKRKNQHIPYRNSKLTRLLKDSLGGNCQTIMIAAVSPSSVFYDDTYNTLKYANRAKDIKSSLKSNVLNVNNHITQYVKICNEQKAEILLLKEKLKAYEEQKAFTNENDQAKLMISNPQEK
T1 sequence (Q2XVP4 whole entry partner): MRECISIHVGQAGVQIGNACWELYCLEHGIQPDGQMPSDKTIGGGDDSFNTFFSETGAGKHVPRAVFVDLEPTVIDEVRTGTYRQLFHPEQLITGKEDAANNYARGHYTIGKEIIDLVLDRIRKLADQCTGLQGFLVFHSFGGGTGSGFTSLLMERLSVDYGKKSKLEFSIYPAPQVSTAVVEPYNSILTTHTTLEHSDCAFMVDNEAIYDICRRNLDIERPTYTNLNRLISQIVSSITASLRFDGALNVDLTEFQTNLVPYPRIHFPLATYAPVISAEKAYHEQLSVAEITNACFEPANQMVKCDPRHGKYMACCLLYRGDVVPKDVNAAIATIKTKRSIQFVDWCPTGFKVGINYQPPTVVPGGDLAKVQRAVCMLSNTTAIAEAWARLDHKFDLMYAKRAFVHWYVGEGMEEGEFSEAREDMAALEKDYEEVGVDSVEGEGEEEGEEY
T1 sequence (P02554 whole entry partner): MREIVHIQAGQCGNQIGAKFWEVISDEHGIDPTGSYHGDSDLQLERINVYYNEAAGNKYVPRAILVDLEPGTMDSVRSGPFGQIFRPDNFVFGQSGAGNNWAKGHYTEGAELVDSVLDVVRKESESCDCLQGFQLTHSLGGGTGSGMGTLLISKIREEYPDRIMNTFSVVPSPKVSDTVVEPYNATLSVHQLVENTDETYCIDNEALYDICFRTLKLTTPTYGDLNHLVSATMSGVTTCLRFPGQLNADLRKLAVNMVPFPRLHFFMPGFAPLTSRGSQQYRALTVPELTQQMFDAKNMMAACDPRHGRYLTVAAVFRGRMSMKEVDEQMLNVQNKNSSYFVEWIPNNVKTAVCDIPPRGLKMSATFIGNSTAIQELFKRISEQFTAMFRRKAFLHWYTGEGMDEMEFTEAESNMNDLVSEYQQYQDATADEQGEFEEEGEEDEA

On to `Cc1cc(N2CCC(F)(F)CC2)nc(-c2nnc(-c3ccc(NS(=O)(=O)CCO)cc3N3CCC4(CC3)CC4)o2)n1` [Example 27, N-(4-(5-(4-(4,4-difluoropiperidin-1-yl)-6-methylpyrimidin-2-yl)-1,3,4-oxadiazol-2-yl)-3-(6-azaspiro[2.5]octan-6-yl)phenyl)-2-hydroxyethanesulfonamide], for which the IC50 in assay [1] was found to be 124 nM; in the assay with OVCAR3 cells, 875 nM; in the assay with HT29 cells it was 24600 nM.

Take `Cc1cc(-c2nnn(-c3ccc(NS(=O)(=O)CCO)cc3N3CCC4(CC3)CC4)c2C)nc(N2CCC(F)(F)CC2)n1` [Example 69, N-(3-{6-azaspiro[2.5]octan-6-yl}-4-{4-[2-(4,4-difluoropiperidin-1-yl)-6-methylpyrimidin-4-yl]-5-methyl-1H-1,2,3-triazol-1-yl}phenyl)-2-hydroxyethane-1-sulfonamide]: the figures for the IC50 (in assay [1]; in the assay with OVCAR3 cells; in the assay with HT29 cells) were more than 3000 nM, 1500 nM and more than 3000 nM, respectively.

As for `Cc1cc(-c2nnc(-c3ccc(NS(=O)(=O)CCO)cc3N3CCC4(CC3)CC4)s2)nc(N2CCC(F)(F)CC2)n1` [Example 14, N-(4-(5-(2-(4,4-difluoropiperidin-1-yl)-6-methylpyrimidin-4-yl)-1,3,4-thiadiazol-2-yl)-3-(6-azaspiro[2.5]oct-6-yl)phenyl)-2-hydroxyethane-1-sulfonamide], the IC50 in assay [1] came to 158 nM; with OVCAR3 cells, 145 nM; with HT29 cells, 88 nM.

For `Cc1cc(N2CCC(F)(F)CC2)nc(-c2nnc(-c3ccc(NS(=O)(=O)CCO)cc3N3CCC4(CC3)CC4)o2)c1Cl` [Example 26, N-(4-(5-(3-chloro-6-(4,4-difluoropiperidin-1-yl)-4-methylpyridin-2-yl)-1,3,4-oxadiazol-2-yl)-3-(6-azaspiro[2.5]octan-6-yl)phenyl)-2-hydroxyethane-1-sulfonamide], the values for the IC50 (in assay [1]; in the assay on OVCAR3 cells; with HT29 cells) were 287 nM, 767 nM and 1270 nM, respectively.

On to `Cc1ccc2cc(-c3cn(-c4ccc(NS(=O)(=O)CCO)cc4N4CCC5(CC4)CC5)nn3)cc(N3CCC(F)(F)CC3)c2n1` [Example 74, N-(3-{6-azaspiro[2.5]octan-6-yl}-4-{4-[8-(4,4-difluoropiperidin-1-yl)-2-methylquinolin-6-yl]-1H-1,2,3-triazol-1-yl}phenyl)-2-hydroxyethane-1-sulfonamide], for which the IC50 came out at 807 nM in assay [1], 119 nM in the assay on OVCAR3 cells and 127 nM in the assay with HT29 cells.

For the compound `Cc1cc(-c2nnc(-c3ccc(NS(=O)(=O)CCO)cc3N3CCC4(CC3)CC4)o2)c(F)c(N2CCC(F)(F)CC2)n1` [Example 23, N-(4-(5-(2-(4,4-difluoropiperidin-1-yl)-3-fluoro-6-methylpyridin-4-yl)-1,3,4-oxadiazol-2-yl)-3-(6-azaspiro[2.5]octan-6-yl)phenyl)-2-hydroxyethane-1-sulfonamide], the values for the IC50 (in assay [1]; in the assay with OVCAR3 cells; in the assay on HT29 cells) were 153 nM, 115 nM and 118 nM, respectively.

For the compound `Cc1cc(-c2cn(-c3ccc(NS(=O)(=O)CCO)cc3N3CCC4(CC3)CC4)nn2)nc(C2=CCC(F)(F)CC2)n1` [Example 37, N-(4-(4-(2-(4,4-difluorocyclohex-1-en-1-yl)-6-methylpyrimidin-4-yl)-1H-1,2,3-triazol-1-yl)-3-(6-azaspiro[2.5]octan-6-yl)phenyl)-2-hydroxyethane-1-sulfonamide], the IC50 came to 253 nM in assay [1], 87 nM in the assay on OVCAR3 cells and 161 nM with HT29 cells.

As to `Cc1cc(-c2noc(-c3ccc(NS(=O)(=O)CCO)cc3N3CCC4(CC3)CC4)n2)nc(N2CCC(F)(F)CC2)n1` [Example 7], the IC50 in assay [1] was 102 nM; in the assay with OVCAR3 cells it was 1180 nM; in the assay on HT29 cells it was more than 3000 nM.

In the case of `O=S(=O)(CCO)Nc1ccc(-c2nnc(-c3cc(O)nc(N4CCC(F)(F)CC4)n3)o2)c(N2CCC3(CC2)CC3)c1` [Example 21, N-(4-(5-(2-(4,4-difluoropiperidin-1-yl)-6-hydroxypyrimidin-4-yl)-1,3,4-oxadiazol-2-yl)-3-(6-azaspiro[2.5]octan-6-yl)phenyl)-2-hydroxyethane-1-sulfonamide], the IC50 in assay [1] was 67 nM; in the assay with OVCAR3 cells, 1620 nM; with HT29 cells, more than 3000 nM.

Take `Cc1cc(-c2cn(-c3ccc(NS(=O)(=O)C4(CO)CC4)cc3N3CCC4(CC3)CC4)nn2)nc(N2CCC(F)(F)CC2)n1` [Example 85, N-(3-{6-azaspiro[2.5]octan-6-yl}-4-{4-[2-(4,4-difluoropiperidin-1-yl)-6-methylpyrimidin-4-yl]-1H-1,2,3-triazol-1-yl}phenyl)-1-(hydroxymethyl)cyclopropane-1-sulfonamide]: the IC50 in assay [1] was determined as 188 nM; in the assay on OVCAR3 cells, 25 nM; in the assay on HT29 cells, 34 nM.

`Cc1cc(-c2nnc(-c3ccc(NS(=O)(=O)CCO)cc3N3CCC4(CC3)CC4)o2)nc(NC(C)(C)CO)n1` [Example 16, 2-hydroxy-N-(4-(5-(2-((1-hydroxy-2-methylpropan-2-yl)amino)-6-methylpyrimidin-4-yl)-1,3,4-oxadiazol-2-yl)-3-(6-azaspiro[2.5]octan-6-yl)phenyl)ethane-1-sulfon amide]: the IC50 in assay [1] was found to be 243 nM; with OVCAR3 cells it was 717 nM; in the assay on HT29 cells, 1520 nM.

As for `Cc1cc(-c2cn(-c3ccc(NS(=O)(=O)CCO)cc3N3CCC4(CC3)CC4)nn2)cc(-c2cnn(C)c2)n1` [Example 39, 2-hydroxy-N-(4-(4-(2-methyl-6-(1-methyl-1H-pyrazol-4-yl)pyridin-4-yl)-1H-1,2,3-triazol-1-yl)-3-(6-azaspiro[2.5]octan-6-yl)phenyl)ethane-1-sulfonamide], the IC50 came out at 414 nM in assay [1], 1330 nM in the assay with OVCAR3 cells and 1570 nM in the assay on HT29 cells.

For `CC(C)(O)c1cc(-c2cn(-c3ccc(NS(=O)(=O)CCO)cc3N3CCC4(CC3)CC4)nn2)nc(N2CCC(F)(F)CC2)n1` [Example 71, N-(4-(4-(2-(4,4-difluoropiperidin-1-yl)-6-(2-hydroxypropan-2-yl)pyrimidin-4-yl)-1H-1,2,3-triazol-1-yl)-3-(6-azaspiro[2.5]octan-6-yl)phenyl)-2-hydroxyethanesulfonamide], the IC50 stood at 165 nM in assay [1], 94 nM with OVCAR3 cells and 131 nM in the assay on HT29 cells.

With `COc1cc(-c2cn(-c3ccc(NS(=O)(=O)CCO)cc3N3CCC4(CC3)CC4)nn2)nc(N2[C@H](C)COC[C@@H]2C)n1` [Example 53, N-(4-(4-(2-((3S,5R)-3,5-dimethylmorpholino)-6-methoxypyrimidin-4-yl)-1H-1,2,3-triazol-1-yl)-3-(6-azaspiro[2.5]octan-6-yl)phenyl)-2-hydroxyethane-1-sulfonamide], the IC50 in assay [1] came to 296 nM; in the assay with OVCAR3 cells, 35 nM; in the assay on HT29 cells, 47 nM.

Take `Cc1cc(-c2cc(-c3ccc(NS(=O)(=O)CCO)cc3N3CCC4(CC3)CC4)n[nH]2)nc(N2CCC(F)(F)CC2)n1` [Example 6, N-(4-(5-(2-(4,4-difluoropiperidin-1-yl)-6-methylpyrimidin-4-yl)-1H-pyrazol-3-yl)-3-(6-azaspiro[2.5]octan-6-yl)phenyl)-2-hydroxyethane-1-sulfonamide]: the IC50 in assay [1] came to 1090 nM; in the assay with OVCAR3 cells it was 257 nM.
